# From patent US7531333B2, “Process for producing isoprenoid compounds by microorganisms and a method for screening compounds with antibiotic or weeding activity” (Kyowa Hakko Kogyo Co., Ltd., priority 1998, dated 2009)
# Read-outs that look alike come from different tables or passages of the source.
# Key:
# [1] = target: T1, 1-deoxy-D-xylulose 5-phosphate reductoisomerase (Escherichia coli, UniProt P45568); experiment: Enzymatic activity of yaeM gene product (NADPH decrease, absorbance at 340 nm); format: biochemical, E. coli
# T1 construct: made in house; host or cells: E. coli M15/pREP4
# T1 sequence (P45568 1-398 R277V/T278R/P279Q/I280L/A281P/H282T/T283P/M284W): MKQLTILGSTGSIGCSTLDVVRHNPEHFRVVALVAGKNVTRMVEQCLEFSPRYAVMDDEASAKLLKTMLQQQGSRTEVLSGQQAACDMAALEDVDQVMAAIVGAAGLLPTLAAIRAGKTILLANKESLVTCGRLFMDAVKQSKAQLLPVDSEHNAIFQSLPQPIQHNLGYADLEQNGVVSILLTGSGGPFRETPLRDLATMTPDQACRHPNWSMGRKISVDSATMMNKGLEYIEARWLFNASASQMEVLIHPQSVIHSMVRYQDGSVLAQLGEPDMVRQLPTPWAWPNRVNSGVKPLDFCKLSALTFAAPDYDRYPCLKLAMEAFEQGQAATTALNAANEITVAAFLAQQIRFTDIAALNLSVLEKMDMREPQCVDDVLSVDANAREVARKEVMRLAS
# Method: (§1) […] of 1-deoxy-D-xylulose 5-phosphate (final concentration) synthesized as described above was added to 1 ml of a reaction solution containing […] Tris-hydrochloric acid (pH 7.5), […] MmCl2, […] NADPH and yaeM gene product obtained in Example 8 (2) ? , and then incubated at 37° C.
# The enzymological characteristics of 1-deoxy-D-xylulose 5-phosphate reductoisomerase were examined using 1 ml of the reaction system as described in Example 8 (2) ? . Here, 1 unit is defined as the activity to oxidize 1 mmol of NADPH per a minute.
# yaeM-deleted strain = experiment: Cell growth of yaeM-disrupted strain on LB agar with 2-C-methyl-D-erythritol; format: cell-based, E. coli; conditions: 1 g/l of 2-C-methyl-D-erythritol, 37° C., 2 days
# Method: (§2) The yaeM-disrupted strain produced as described above and its parent strain FS1576 were spread on LB agar medium and the same medium containing 1 g/l of 2-C-methyl-D-erythritol, then cultured at 37° C.
# FS1576 = experiment: Cell growth of parent strain FS1576 on LB agar with 2-C-methyl-D-erythritol; format: cell-based, E. coli; conditions: FS1576, 1 g/l of 2-C-methyl-D-erythritol, 37° C., 2 days
# Method: as §2
# [2] = target: T1, 1-deoxy-D-xylulose 5-phosphate reductoisomerase; format: biochemical, E. coli; conditions: various concentrations, 37° C., FIG. 4
# Method: as §1
# E. coli W3110 = experiment: Growth of E. coli W3110 on LB agar medium containing fosmidomycin; format: cell-based; conditions: 37° C., two days
# Method: E. coli W3110 was spread on LB agar medium, the same medium containing 3.13 mg/l of fosmidomycin, and the same medium containing 3.13 mg/l of fosmidomycin and 0.25 g/l of 2-C-methyl-D-erythritol, then cultured at 37° C.
# [3] = additive at 1 mol/l, N.D. = no activity was detected, 1 unit = activity to oxidize 1 mmol of NADPH per minute
structure (smiles),measurement,setting,value
O=S(=O)([O-])[O-].[Zn+2] [ZnSO4],Specific Activity,[1]; [3],0.3 units/mg protein
[Cl-].[Cl-].[Mg+2] [MgCl2],Specific Activity,[1]; [3],4.0 units/mg protein
CC(=O)[C@@H](O)[C@H](O)CO [1-deoxy-D-xylulose],Reaction when used as substrate instead of 1-deoxy-D-xylulose 5-phosphate,[1],No reaction occurred
O=S(=O)([O-])[O-].[Ni+2] [NiSO4],Specific Activity,[1]; [3],0.2 units/mg protein
[Cl-].[Cl-].[Co+2] [CoCl2],Specific Activity,[1],6.0 units/mg protein
NC(=O)C1=CN([C@@H]2O[C@H](COP(=O)(O)OP(=O)(O)OC[C@H]3O[C@@H](n4cnc5c(N)ncnc54)[C@H](O)[C@@H]3O)[C@@H](O)[C@H]2O)C=CC1 [NADH],Activity when NADPH was replaced with NADH,[1]; relative to activity with NADPH,below 1/100
"C[C@](O)(CO)[C@H](O)CO [ME, 2-C-methyl-D-erythritol]",Cell growth on LB + ME,yaeM-deleted strain,+
same,Cell growth on LB + ME,FS1576,+
"O=CN(O)CCCP(=O)(O)O [fosmidomycin, 3-(N-formyl-N-hydroxyamino)propylphosphonic acid]",Inhibition of 1-deoxy-D-xylulose 5-phosphate reductoisomerase,[2],inhibit
same,Growth of the microorganism on LB agar medium,E. coli W3110; 3.13 mg/l of fosmidomycin and 0.25 g/l of 2-C-methyl-D-erythritol,could grow
same,Growth of the microorganism on LB agar medium,E. coli W3110; 3.13 mg/l of fosmidomycin only,no microorganism grew
[Cl][Mn][Cl] [MnCl2],Specific Activity,[1]; [3],11.8 units/mg protein
[Ca+2].[Cl-].[Cl-] [CaCl2],Specific Activity,[1]; [3],0.2 units/mg protein
NC(=O)c1ccc[n+]([C@@H]2O[C@H](COP(=O)([O-])OP(=O)(O)OC[C@H]3O[C@@H](n4cnc5c(N)ncnc54)[C@H](OP(=O)(O)O)[C@@H]3O)[C@@H](O)[C@H]2O)c1 [NADP],Km,[1]; in the presence of MnCl2,7.4 µM
